According to ChEMBL document CHEMBL1152078, “An efficient preparation of the potent and selective pseudopeptide thrombin inhibitor, inogatran” (Bioorg Med Chem Lett, 1997):

How the values were obtained:
[1] = The compound was evaluated for bioavailability in dogs; 34-44; type: ADME, organism-based, Canis lupus familiaris; settings: dog, in vivo; read-out: Bioavailabiility
[2] = The compound was evaluated for bioavailability in rats; 32-51; type: ADME, organism-based; settings: rat, in vivo; read-out: Bioavailabiility

bioavailability [1]: 44% | bioavailability [2]: 51%
SMILES: Cl.Cl.N=C(N)NCCCNC(=O)[C@@H]1CCCCN1C(=O)[C@@H](CC1CCCCC1)NCC(=O)O
